{
  "source": "patent US20250339450A1",
  "about": "“TREATMENT OF SYNGAP1 ENCEPHALOPATHY” (Harmony Biosciences Management, Inc., priority 2019, published 2025)",
  "system": "patients with SYNGAP1",
  "assay": "Four patients with SYNGAP1 in Study ZYN2-CL-025 (BELIEVE)",
  "assay_type": "in vivo, human",
  "conditions": "SYNGAP1 encephalopathy patients; across the 26-week treatment period; transdermal",
  "from_the_text": "The trial summarized in the examples—a Phase 2 open label clinical trial—assessed the safety and efficacy of transdermal administration of CBD in a heterogeneous group of SYNGAP1 encephalopathy and other rare developmental and epileptic encephalopathies (DEEs), including but not limited to Dravet Syndrome (DS) and Lennox-Gastaut Syndrome (LGS). Some of the most common and debilitating SYNGAP1 encephalopathy seizure types are focal impaired-awareness and convulsive seizures. Patients with SYNGAP1 encephalopathy who experienced these seizure types, such as SYNGAP1 seizures, experienced seizure reductions of up to 73% across the 26-week treatment period. Qualitative assessments by caregivers in the study indicate improved behavioral problems including improved mood, engagement with others, learning ability, alertness, school attendance, as well as cognitive symptoms.\nThis was a sequential, multi-stage, open-label, multi-national, multiple-center, multiple-dose study to assess the long-term safety and tolerability of ZYN002 (transdermal CBD gel) in child and adolescent epilepsy patients from 3 to 18 years of age having seizures associated with developmental and epileptic encephalopathies (DEE) according to the International League Against Epilepsy (ILEA) classification (Scheffer et al. 2017). […]",
  "data": [
    {"compound": "C=C(C)C1CCC(C)=CC1c1c(O)cc(CCCCC)cc1O", "note": "(stereo not shown) [CBD, 2-[3-methyl-6-(1-methylethenyl)-2-cyclohexen-1-yl]-5-pentyl-1,3-benzenediol]", "values": [
      {"measurement": "seizure reductions", "value": "up to 73%"}
    ]}
  ]
}
